Experimental data published in the NIST ThermoML archive (doi:10.1021/acs.jced.8b00725).
Numbers after ± are expanded uncertainties.

Settings: 293.15 K; 100 kPa; Liquid; Vibrating tube method

| Structure (SMILES) | mass density |
| --- | --- |
| CC[NH+](CC)CC.O=S(=O)([O-])C(F)(F)F [triethylammonium trifluoromethanesulfonate] | 1268.63 ± 11 kg/m3 |
| CCC(=O)[O-].OCC[NH+](CCO)CCO [triethanolammonium propanoate] | 1139.53 ± 7 kg/m3 |
| CC[NH2+]CC.O=S(=O)([O-])O [diethylammonium hydrogen sulfate] | 1382.76 ± 13 kg/m3 |
| CCN(CC)CC.O=C(O)c1ccccc1O [triethylammonium salicylate] | 1099.07 ± 8.5 kg/m3 |
| CC[NH+](C)C.O=C([O-])C(F)(F)F [N,N-dimethyl-N-ethylammonium trifluoroacetate] | 1212.41 ± 10 kg/m3 |
| CC[NH+](CC)CC.O=C([O-])C(F)(F)F [triethylammonium trifluoroacetate] | 1165.69 ± 9.5 kg/m3 |
| CC[NH+](CC)CC.CS(=O)(=O)[O-] [triethylammonium methanesulfonate] | 1120.47 ± 8.8 kg/m3 |
| CC(=O)O.CCN(CC)CC [triethylammonium acetate] | 1013.29 ± 7.2 kg/m3 |
| CC[NH+](CC)CC.O=C([O-])c1ccccc1 [triethylammonium benzoate] | 1101.47 ± 8.5 kg/m3 |

Same assay, conditions: 298.15 K; 100 kPa; Liquid; Vibrating tube method

| Structure (SMILES) | mass density |
| --- | --- |
| CC[NH+](CC)CC.O=S(=O)([O-])C(F)(F)F [triethylammonium trifluoromethanesulfonate] | 1264.56 ± 11 kg/m3 |
| CCC(=O)[O-].OCC[NH+](CCO)CCO [triethanolammonium propanoate] | 1136.51 ± 7 kg/m3 |
| CC[NH2+]CC.O=S(=O)([O-])O [diethylammonium hydrogen sulfate] | 1379.53 ± 13 kg/m3 |
| CCN(CC)CC.O=C(O)c1ccccc1O [triethylammonium salicylate] | 1095.79 ± 8.4 kg/m3 |
| CC[NH+](C)C.O=C([O-])C(F)(F)F [N,N-dimethyl-N-ethylammonium trifluoroacetate] | 1208.11 ± 10 kg/m3 |
| CC[NH+](CC)CC.O=C([O-])C(F)(F)F [triethylammonium trifluoroacetate] | 1161.57 ± 9.5 kg/m3 |
| CC[NH+](CC)CC.CS(=O)(=O)[O-] [triethylammonium methanesulfonate] | 1117.11 ± 8.7 kg/m3 |
| CC(=O)O.CCN(CC)CC [triethylammonium acetate] | 1009.63 ± 7.1 kg/m3 |
| CC[NH+](CC)CC.O=C([O-])c1ccccc1 [triethylammonium benzoate] | 1098.02 ± 8.4 kg/m3 |

Same assay, conditions: 303.15 K; 100 kPa; Liquid; Vibrating tube method

| Structure (SMILES) | mass density |
| --- | --- |
| CC[NH+](CC)CC.O=S(=O)([O-])C(F)(F)F [triethylammonium trifluoromethanesulfonate] | 1260.51 ± 11 kg/m3 |
| CCC(=O)[O-].OCC[NH+](CCO)CCO [triethanolammonium propanoate] | 1133.47 ± 7 kg/m3 |
| CC[NH2+]CC.O=S(=O)([O-])O [diethylammonium hydrogen sulfate] | 1376.33 ± 13 kg/m3 |
| CCN(CC)CC.O=C(O)c1ccccc1O [triethylammonium salicylate] | 1092.57 ± 8.3 kg/m3 |
| CC[NH+](C)C.O=C([O-])C(F)(F)F [N,N-dimethyl-N-ethylammonium trifluoroacetate] | 1203.82 ± 10 kg/m3 |
| CC[NH+](CC)CC.O=C([O-])C(F)(F)F [triethylammonium trifluoroacetate] | 1157.44 ± 9.4 kg/m3 |
| CC[NH+](CC)CC.CS(=O)(=O)[O-] [triethylammonium methanesulfonate] | 1113.77 ± 8.7 kg/m3 |
| CC(=O)O.CCN(CC)CC [triethylammonium acetate] | 1005.87 ± 7 kg/m3 |
| CC[NH+](CC)CC.O=C([O-])c1ccccc1 [triethylammonium benzoate] | 1094.65 ± 8.4 kg/m3 |

Same assay, conditions: 308.15 K; 100 kPa; Liquid; Vibrating tube method

| Structure (SMILES) | mass density |
| --- | --- |
| CC[NH+](CC)CC.O=S(=O)([O-])C(F)(F)F [triethylammonium trifluoromethanesulfonate] | 1256.47 ± 11 kg/m3 |
| CCC(=O)[O-].OCC[NH+](CCO)CCO [triethanolammonium propanoate] | 1130.43 ± 6.9 kg/m3 |
| CC[NH2+]CC.O=S(=O)([O-])O [diethylammonium hydrogen sulfate] | 1373.15 ± 13 kg/m3 |
| CCN(CC)CC.O=C(O)c1ccccc1O [triethylammonium salicylate] | 1089.33 ± 8.3 kg/m3 |
| CC[NH+](C)C.O=C([O-])C(F)(F)F [N,N-dimethyl-N-ethylammonium trifluoroacetate] | 1199.56 ± 10 kg/m3 |
| CC[NH+](CC)CC.O=C([O-])C(F)(F)F [triethylammonium trifluoroacetate] | 1153.32 ± 9.3 kg/m3 |
| CC[NH+](CC)CC.CS(=O)(=O)[O-] [triethylammonium methanesulfonate] | 1110.44 ± 8.6 kg/m3 |
| CC(=O)O.CCN(CC)CC [triethylammonium acetate] | 1002.1 ± 7 kg/m3 |
| CC[NH+](CC)CC.O=C([O-])c1ccccc1 [triethylammonium benzoate] | 1091.27 ± 8.3 kg/m3 |

Same assay, conditions: 313.15 K; 100 kPa; Liquid; Vibrating tube method

| Structure (SMILES) | mass density |
| --- | --- |
| CC[NH+](CC)CC.O=S(=O)([O-])C(F)(F)F [triethylammonium trifluoromethanesulfonate] | 1252.45 ± 11 kg/m3 |
| CCC(=O)[O-].OCC[NH+](CCO)CCO [triethanolammonium propanoate] | 1127.31 ± 6.9 kg/m3 |
| CC[NH2+]CC.O=S(=O)([O-])O [diethylammonium hydrogen sulfate] | 1369.99 ± 13 kg/m3 |
| CCN(CC)CC.O=C(O)c1ccccc1O [triethylammonium salicylate] | 1086.08 ± 8.2 kg/m3 |
| CC[NH+](C)C.O=C([O-])C(F)(F)F [N,N-dimethyl-N-ethylammonium trifluoroacetate] | 1195.28 ± 10 kg/m3 |
| CC[NH+](CC)CC.O=C([O-])C(F)(F)F [triethylammonium trifluoroacetate] | 1149.21 ± 9.3 kg/m3 |
| CC[NH+](CC)CC.CS(=O)(=O)[O-] [triethylammonium methanesulfonate] | 1107.13 ± 8.6 kg/m3 |
| CC(=O)O.CCN(CC)CC [triethylammonium acetate] | 998.33 ± 6.9 kg/m3 |
| CC[NH+](CC)CC.O=C([O-])c1ccccc1 [triethylammonium benzoate] | 1087.87 ± 8.3 kg/m3 |

Same assay, conditions: 318.15 K; 100 kPa; Liquid; Vibrating tube method

| Structure (SMILES) | mass density |
| --- | --- |
| CC[NH+](CC)CC.O=S(=O)([O-])C(F)(F)F [triethylammonium trifluoromethanesulfonate] | 1248.45 ± 11 kg/m3 |
| CCC(=O)[O-].OCC[NH+](CCO)CCO [triethanolammonium propanoate] | 1124.25 ± 6.9 kg/m3 |
| CC[NH2+]CC.O=S(=O)([O-])O [diethylammonium hydrogen sulfate] | 1366.85 ± 13 kg/m3 |
| CCN(CC)CC.O=C(O)c1ccccc1O [triethylammonium salicylate] | 1082.83 ± 8.2 kg/m3 |
| CC[NH+](C)C.O=C([O-])C(F)(F)F [N,N-dimethyl-N-ethylammonium trifluoroacetate] | 1191.03 ± 10 kg/m3 |
| CC[NH+](CC)CC.O=C([O-])C(F)(F)F [triethylammonium trifluoroacetate] | 1145.1 ± 9.2 kg/m3 |
| CC[NH+](CC)CC.CS(=O)(=O)[O-] [triethylammonium methanesulfonate] | 1103.83 ± 8.5 kg/m3 |
| CC(=O)O.CCN(CC)CC [triethylammonium acetate] | 994.55 ± 6.9 kg/m3 |
| CC[NH+](CC)CC.O=C([O-])c1ccccc1 [triethylammonium benzoate] | 1084.47 ± 8.2 kg/m3 |

Same assay, conditions: 323.15 K; 100 kPa; Liquid; Vibrating tube method

| Structure (SMILES) | mass density |
| --- | --- |
| CC[NH2+]CC.O=C([O-])C(F)(F)F [diethylammonium trifluoroacetate] | 1158.82 ± 9.4 kg/m3 |
| O=S(=O)(O)O.OCCN(CCO)CCO [triethanolammonium hydrogen sulfate] | 1421.3 ± 14 kg/m3 |
| CC[NH+](CC)CC.O=S(=O)([O-])C(F)(F)F [triethylammonium trifluoromethanesulfonate] | 1244.46 ± 11 kg/m3 |
| CCC(=O)[O-].OCC[NH+](CCO)CCO [triethanolammonium propanoate] | 1121.15 ± 6.8 kg/m3 |
| CC[NH2+]CC.O=S(=O)([O-])O [diethylammonium hydrogen sulfate] | 1363.73 ± 13 kg/m3 |
| CCN(CC)CC.O=C(O)c1ccccc1O [triethylammonium salicylate] | 1079.58 ± 8.2 kg/m3 |
| CC[NH+](C)C.O=C([O-])C(F)(F)F [N,N-dimethyl-N-ethylammonium trifluoroacetate] | 1186.78 ± 9.9 kg/m3 |
| CC[NH+](CC)CC.O=C([O-])C(F)(F)F [triethylammonium trifluoroacetate] | 1141 ± 9.1 kg/m3 |
| CC[NH+](CC)CC.CS(=O)(=O)[O-] [triethylammonium methanesulfonate] | 1100.54 ± 8.5 kg/m3 |
| CC(=O)O.CCN(CC)CC [triethylammonium acetate] | 990.75 ± 6.8 kg/m3 |
| CC[NH+](CC)CC.O=C([O-])c1ccccc1 [triethylammonium benzoate] | 1081.07 ± 8.2 kg/m3 |

Same assay, conditions: 328.15 K; 100 kPa; Liquid; Vibrating tube method

| Structure (SMILES) | mass density |
| --- | --- |
| CC[NH2+]CC.O=C([O-])C(F)(F)F [diethylammonium trifluoroacetate] | 1154.74 ± 9.3 kg/m3 |
| O=S(=O)(O)O.OCCN(CCO)CCO [triethanolammonium hydrogen sulfate] | 1418.8 ± 14 kg/m3 |
| CC[NH+](CC)CC.O=S(=O)([O-])C(F)(F)F [triethylammonium trifluoromethanesulfonate] | 1240.48 ± 11 kg/m3 |
| CCC(=O)[O-].OCC[NH+](CCO)CCO [triethanolammonium propanoate] | 1118.01 ± 6.8 kg/m3 |
| CC[NH2+]CC.O=S(=O)([O-])O [diethylammonium hydrogen sulfate] | 1360.62 ± 13 kg/m3 |
| CCN(CC)CC.O=C(O)c1ccccc1O [triethylammonium salicylate] | 1076.35 ± 8.1 kg/m3 |
| CC[NH+](C)C.O=C([O-])C(F)(F)F [N,N-dimethyl-N-ethylammonium trifluoroacetate] | 1182.54 ± 9.8 kg/m3 |
| CC[NH+](CC)CC.O=C([O-])C(F)(F)F [triethylammonium trifluoroacetate] | 1136.91 ± 9.1 kg/m3 |
